Values joined by “and” are separate entries in the source; they are usually repeats but may differ in a detail not shown here. Equal values may be shown once.
What was measured:
[1] = 30-min pharmacokinetic experiment with oral elacridar coadministration in WT mice
Procedure: Considering the potential therapeutic benefit of increasing EAI045 brain penetration, and possibly also plasma exposure, we investigated to what extent elacridar, a dual ABCB1 and ABCG2 inhibitor, could increase the brain penetration and oral exposure of EAI045. We performed a 30-min pharmacokinetic experiment with an EAI045 dose of 20 mg/kg, and elacridar at 50 mg/kg. As elacridar plasma concentration peaks around 3–4 h after oral administration, elacridar was administered orally 3 h prior to oral EAI045 administration to male WT mice. Plasma and tissue EAI045 levels were determined 30 min later.
(§1) Mice (Mus musculus) were bred in the Netherlands Cancer Institute and housed and handled according to institutional guidelines complying with Dutch and EU legislation. Animals used were WT, Abcb1a/1b^-/- [39], Abcg2^-/- [40], Abcb1a/1b;Abcg2^-/- [41], Cyp3a^-/- [42], and Oatp1a/1b^-/- [43] mice of a >99% FVB/N strain background. Homozygous CYP3A4 humanized transgenic mice (Cyp3aXAV) were generated by cross-breeding of transgenic mice with stable human CYP3A4 expression in the liver or intestine, respectively, in a Cyp3a^-/- background. Proper functionality of the knockout and transgenic strains was monitored by regular testing with a variety of drug substrates. All the mice used were between 10 and 15 weeks of age. Animals were kept in a temperature-controlled environment with a 12 h light/12 h dark cycle and received a standard diet (Transbreed, SDS Diets, Technilab-BMI, The Netherlands) and acidified water ad libitum. Depending on the type of experiment, 5 or 6 mice were tested in each experimental group. All experimental animal protocols, including power calculations, were ethically assessed and designed under the nationally approved DEC/CCD project AVD301002016595 (approval date, 10 August 2016) and evaluated and approved by the institutional animal care and use committee (IACUC) of the Netherlands Cancer Institute.
(§2) EAI045 was dissolved in dimethyl sulfoxide (DMSO) at a concentration of […], and then diluted with a mixture of polysorbate 80/ethanol (1:1, v/v), and further diluted with 5% (w/v) glucose in water to yield a concentration of 2 mg/mL. Final concentrations for DMSO, polysorbate 80, ethanol, and glucose in the dosing solution were 5%, 2.5%, 2.5%, and 4.5% (v/v/v/w), respectively. Elacridar hydrochloride was dissolved in DMSO at a concentration of 53 mg/mL, then diluted with a mixture of polysorbate 80, ethanol, and water [20:13:67, (v/v/v)] to yield a concentration of 5 mg/mL elacridar. The final oral dose of elacridar was 50 mg/kg body weight. All dosing solutions were prepared freshly on the day of experiment.
(§3) To minimize variation in absorption, mice were fasted for about 3 h before EAI045 was administered by gavage into the stomach (n = 5–6), using a blunt-ended needle. EAI045 was administered orally at dose of 20 mg/kg. Elacridar was administered orally at a dose of 50 mg/kg, 3 h prior to oral EAI045 administration. For the 24- or 4-h experiments, tail vein blood samplings were performed at 5 min, 30 min, 1, 2, 4, and 8 h, or 5 min, 15 min, 30 min, 1, and 2 h time points after oral administration of EAI045, respectively, using microvettes containing heparin. For the 30 min experiments, blood samplings were performed at 5, 10, and 20 min from the tail vein. At the last time point (24 h, 4 h, or 30 min), mice were anesthetized with isoflurane and blood was collected by cardiac puncture. Then, mice were sacrificed by cervical dislocation and brain, liver, spleen, kidneys, lung, small intestine with content (SIWC), and testis were rapidly removed and weighed. Tissues were homogenized on ice in appropriate volumes of 2% (w/v) BSA. Blood samples were centrifuged at 9000× g for 6 min at 4 °C immediately after collection.

[2] = mouse, in vivo
Excerpt: as §1, §2
as §3, with “collection. All samples were stored at −30 °C until analysis.” for “collection.”

[3] = WT + elacridar compared to Abcb1a/1b;Abcg2-/- mice, 30 min
[4] = male WT mice + elacridar, EAI045 20 mg/kg oral, 30 min
[5] = male WT mice + elacridar, EAI045 20 mg/kg oral, plasma

## O=C(Nc1nccs1)C(c1cc(F)ccc1O)N1Cc2ccccc2C1=O (centres unmarked) [EAI045]
[1]; WT + elacridar compared to Abcb1a/1b;Abcg2-/- mice
  plasma AUC0–30min, fold increase: 2.4 fold
[1]; [3]
  SIWC%, fold decrease: 3.5 fold
  SIWC%-to-plasma ratio, fold decrease: 8.6 fold
[1]; WT + elacridar vs WT, 30 min
  Fold change Cbrain: 17 fold and 17.0 fold
  Fold change Ctestis: 8.7 fold
  Fold change Kp.SIWC%: 0.032 fold
  Fold change Kp.brain: 5.4 fold
  Fold change Kp.testis: 2.6 fold
  Fold change SIWC%: 0.13 fold
  Kp.SIWC% (SIWC%-to-plasma ratio), fold decrease: 30.8 fold
  SIWC%, fold decrease: 7.5 fold
[1]; WT + elacridar vs WT, plasma AUC0–30min, EAI045 20 mg/kg oral, 20 mg/kg
  Fold change AUC: 4 fold and 4.0 fold
[1]; male WT mice + elacridar 50 mg/kg oral 3 h before, EAI045 20 mg/kg oral
  Plasma AUC0–30min: 549 ± 82 ***^. +++ h*ng/mL
[1]; [4]
  Cbrain (brain concentration): 395.9 ± 123.1 ***^. +++ ng/g
  Ctestis (testis concentration): 198.7 ± 58.9 ***^. +++ ng/g
  Kp.SIWC% (SIWC%-to-plasma ratio): 5.13 ± 2.63
  Kp.brain (brain-to-plasma ratio): 0.560 ± 0.200
  Kp.testis (testis-to-plasma ratio): 0.280 ± 0.096
  SIWC% (drug percentage of dose in small intestine with content): 4.00 ± 2.57 %
[1]; [5]
  Cmax: 1512 ± 260 ng/mL
  tmax: 10 to 30 min
[2]
  kidney-to-plasma ratio, fold change: 1.6 fold
[2]; po, 20 mg/kg
  systemic exposure of EAI045: not changed

From publication PMC9505538, “P-Glycoprotein (MDR1/ABCB1) Restricts Brain Accumulation of the Novel EGFR Inhibitor EAI045 and Oral Elacridar Coadministration Enhances Its Brain Accumulation and Oral Exposure” (Pharmaceuticals, 2022)
